# Data as given in PubChem BioAssay (NCI).
#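 Interpolation was linear, between the two tested concentrations surrounding the appropriate level; five concentrations were tested over 48 hours in 96-well plates. At the GI50, growth is halved. TGI is the concentration that stops growth completely.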
# Legend:
# Assay in all cases: NCI-60 cell line screen, 48 h
# [1] = test system: UO-31 renal
# [2] = test system: NCI-H522 lung
# [3] = test system: NCI-H23 lung
# [4] = test system: SN12C renal
# [5] = test system: OVCAR-4 ovarian
# [6] = test system: TK-10 renal
# [7] = test system: M14 melanoma
# [8] = test system: IGROV1 ovarian
# [9] = test system: SK-OV-3 ovarian
# [10] = test system: HOP-92 NSCLC
Structure (SMILES),TGI [1],TGI [2],TGI [3],TGI [4],TGI [5],TGI [6],TGI [7],TGI [8],TGI [9],GI50 [1],GI50 [2],GI50 [3],GI50 [4],GI50 [5],GI50 [6],GI50 [7],GI50 [8],TGI [10],GI50 [10],GI50 [9]
Cn1cc(-c2ccc3c4ccccc4n(C)c3c2)c2ccccc21,> 100 µM,> 100 µM,> 100 µM,> 100 µM,> 100 µM,> 100 µM,> 100 µM,> 100 µM,> 100 µM,–,–,–,–,–,–,–,–,–,–,–
N.N.N.N.N#N.N#N.[Cl-].[Os+6],> 100 µM,> 100 µM,> 100 µM,> 100 µM,> 100 µM,> 100 µM,> 100 µM,> 100 µM,–,> 100 µM,> 100 µM,> 100 µM,> 100 µM,> 100 µM,> 100 µM,> 100 µM,> 100 µM,–,–,–
O=C(O)c1cccc([As]=[As]c2cccc(C(=O)O)c2)c1 (stereo not given),> 100 µM,35.7 µM,> 100 µM,> 100 µM,> 100 µM,57.1 µM,> 100 µM,> 100 µM,–,–,–,–,–,–,–,–,–,37.4 µM,–,–
CC(C)(C)c1cc(C2c3cc4c(cc3OC(O)(CO)C2C(=O)O)OCO4)cc(C(C)(C)C)c1O (stereo not given) (tested in a mixture with another compound),26.6 µM,–,29.6 µM,31 µM,25.6 µM,45.4 µM,30.7 µM,48.6 µM,45.8 µM,–,–,–,–,–,–,–,–,43.7 µM,–,–
O=C(c1ccc(Cl)cc1Cl)N1CCN(C(=O)c2ccc(Cl)cc2Cl)C1=S,–,38.1 µM,43.4 µM,34.4 µM,80.9 µM,> 100 µM,30.2 µM,46 µM,55.4 µM,–,18.2 µM,19.8 µM,18.1 µM,25.8 µM,36.3 µM,16.3 µM,21 µM,28.5 µM,7.83 µM,22.8 µM
Cc1nc2ccccc2c(=O)n1/N=C(\N=Nc1ccc(Cl)cc1)c1cccc(-c2ccco2)c1,43.1 µM,54.4 µM,65.2 µM,> 100 µM,–,> 100 µM,> 100 µM,> 100 µM,> 100 µM,–,–,–,–,–,–,–,–,55.4 µM,–,–
O=C(CC1(O)C(=O)Nc2ccccc21)c1ccc(Cl)c(Cl)c1 (stereo not given),> 100 µM,> 100 µM,> 100 µM,> 100 µM,> 100 µM,–,> 100 µM,> 100 µM,> 100 µM,–,–,–,–,–,–,–,–,> 100 µM,–,–
Cc1cc(NS(=O)(=O)c2ccc(NC(=O)c3ccc(Cl)c4c(Nc5ccc(S(=O)(=O)Nc6cc(C)on6)cc5)c5ccccc5nc34)cc2)no1,37.1 µM,33.2 µM,–,41.7 µM,81.8 µM,71.1 µM,49.4 µM,49.7 µM,42.2 µM,–,–,–,–,–,–,–,–,46.2 µM,–,–
Cc1nc(-n2nc(-c3ccccc3)cc2-c2ccccc2)sc1C(=O)CC(=O)C(=O)Nc1ccc(Cl)c(Cl)c1,> 100 µM,> 100 µM,> 100 µM,> 100 µM,> 100 µM,> 100 µM,> 100 µM,> 100 µM,> 100 µM,–,–,–,–,–,–,–,–,–,–,–
COC(=O)CNC(=O)C(=O)c1c(O)c(O)c(C(C)C)c2cc(C)c(-c3c(C)cc4c(C(C)C)c(O)c(O)c(C(=O)C(=O)NCC(=O)OC)c4c3O)c(O)c12,6.04 µM,3.43 µM,6.37 µM,8.13 µM,4.58 µM,–,9.9 µM,8.94 µM,6.89 µM,1.43 µM,1.32 µM,1.53 µM,1.97 µM,1.29 µM,–,2.09 µM,1.92 µM,3.81 µM,1.38 µM,1.79 µM
CCN(Cc1ccc(Cl)c(Cl)c1)c1ccc2nc(N)nc(N)c2c1C,1.64 µM,1.82 µM,1.49 µM,–,16.1 µM,1.91 µM,1.63 µM,1.58 µM,2.22 µM,0.0457 µM,0.0378 µM,0.0284 µM,–,1.05 µM,0.0753 µM,< 0.01 µM,< 0.01 µM,1.82 µM,0.24 µM,0.172 µM
Cn1c(=O)nc2n(-c3ccc(Br)cc3)c3ccccc3nc-2c1=O,37.9 µM,18.4 µM,4.2 µM,17.9 µM,14.6 µM,32.8 µM,15.5 µM,28 µM,> 100 µM,–,–,–,–,–,–,–,–,–,–,–
O=C1/C(=C/c2ccc(F)cc2)COc2ccc(O)c(O)c21,2.27 µM,1.24 µM,13.7 µM,3.79 µM,> 100 µM,> 100 µM,19.2 µM,3.94 µM,> 100 µM,1.05 µM,0.304 µM,2.65 µM,1.26 µM,2.77 µM,4.74 µM,3.21 µM,1.1 µM,–,–,4.45 µM
CC(=O)c1cc2c(Br)cccc2oc1=O,–,> 100 µM,> 100 µM,> 100 µM,> 100 µM,> 100 µM,> 100 µM,> 100 µM,–,–,–,–,–,–,–,–,–,> 100 µM,–,–
Nc1n[n+]([O-])c2ccc(Cl)cc2[n+]1[O-],> 100 µM,38.2 µM,46.4 µM,> 100 µM,–,> 100 µM,40.4 µM,25.3 µM,52.9 µM,–,–,–,–,–,–,–,–,–,–,–
O=C(CCN1CCCC1)Nc1ccc2c(Nc3ccc(F)cc3)c3ccccc3nc2c1,2.55 µM,3.25 µM,2.63 µM,2.43 µM,3.03 µM,3.97 µM,3.53 µM,3.27 µM,–,1.16 µM,1.31 µM,1.08 µM,0.523 µM,1.21 µM,1.66 µM,1.64 µM,1.03 µM,2.68 µM,1.18 µM,–
Cc1c(C)c2cc3c(=O)c(CCl)coc3c(C)c2oc1=O,> 100 µM,> 100 µM,> 100 µM,> 100 µM,–,> 100 µM,> 100 µM,> 100 µM,> 100 µM,–,–,–,–,–,–,–,–,–,–,–
COC(=O)NC1(NC(=O)OC)NC(=O)c2ccccc2N1,> 100 µM,> 100 µM,> 100 µM,> 100 µM,> 100 µM,> 100 µM,> 100 µM,> 100 µM,> 100 µM,–,–,–,–,–,–,–,–,–,–,–
O=C1OC(c2ccc([N+](=O)[O-])cc2)=N/C1=C\c1ccc(Cl)cc1,–,> 100 µM,> 100 µM,> 100 µM,> 100 µM,> 100 µM,> 100 µM,> 100 µM,> 100 µM,–,–,–,–,–,–,–,–,> 100 µM,–,–
